Assay results taken from patent publication US20050192240A1, “Methods and compositions relating to expression factors” (priority 2004, published 2005).
Values after ≈ are worked out from the molar mass of the structure shown. Like-named read-outs stand apart in the source and are kept apart here.

How the values were obtained:
Type in all cases: cell-based
C. albicans [1] = test: RT-PCR of CDR1 and CaNDT80 mRNA with or without miconazole; settings: miconazole 100 μg/ml, one hour, 30° C.; strains SC5314, YLO133, YLO137
Description: C. albicans strains SC5314 (wild type), YLO133 (homozygous mutant Candt80/Candt80) and YLO137 (rescued strain of YLO133 with one copy of CaNDT80), were grown in the presence or absence of the antifungal agent, miconazole (Sigma) at 100 μg/ml for one hour at 30° C. The level of mRNAs of TEF3 (control), CDR1, and CaNDT80, was measured by reverse transcriptase polymerase chain reaction (RT-PCR). […] Lanes 2-4 and 11-13 represent mRNA from YLO133 (homozygous mutant), lanes 5-7 and 14-16 represent mRNA from YLO137 (rescued mutant), and lanes 8-10 and 17-19 represent mRNA from the wild-type strain, SC5314. Lanes 2, 5, 8, 11, 14, and 17 were tested for TEF3 mRNA (internal control); lanes 3, 6, 9, 12, 15, and 18, were tested for CDR1 mRNA; and lanes 4, 7, 10, 13, 16, and 19 were tested for CaNDT80 mRNA. As expected, no CaNDT80 mRNA was detected in the homozygous mutant (FIG. 9, lanes […] and 13). In contrast, CaNDT80 mRNA was detected in the wild-type strain during vegetative growth (FIG. 9, lanes 10 and 19), unlike its homolog NDT80 in S. cerevisiae.

C. albicans [2] = test: Agar dilution assay of C. albicans strains; settings: Candt80/Candt80 mutant versus wild-type or rescued strain; fluconazole 25 μg/ml, voriconazole 1 μg/ml
Description: The cdr1/cdr1 homozygous mutant was constructed according to Sanglard et al., Antimicrob. Agents Chemother. 40:2300-2305, 1996. Fluconazole and voriconazole were prepared to a final concentration of 25 μg/ml and 1 μg/ml, respectively in dimethylsulfoxide (DMSO). C. albicans cells grown on media containing DMSO and in the absence of drug, was used as the control. C. albicans cells were diluted to an OD600 of 2 (corresponding to approximately 2×10^7cells/ml) and 0.5 μl was spotted onto plates containing either fluconazole (25 μg/ml) or voriconazole (1 μg/ml) using a replica device (Oxoid Inc., Canada). Cells were also prepared and spotted in 10-fold serial dilutions (10^4 to 10 cells).

S. cerevisiae = test: Etest antifungal strip susceptibility of S. cerevisiae strains; settings: for MIC: Saccharomyces cerevisiae, SD plate, 30° C., read-out: minimum inhibitory concentration (MIC)
Source text: The effect on drug susceptibility by overexpression of CaNdt80p and its S. cerevisiae homolog, Ndt80p, were compared using the antifungal strips, Etest (AB BIODISK, Solna, Sweden) (Arendrup et al., J. Antimicrob. Chemother. 47:521-526, 2001; Chang et al., J. Clin. Microbiol 39:1328-1333, 2001). S. cerevisiae Ndt80p was identified as a meiosis specific transcription factor (Chu et al., Science 282:699-705, 1998; Chu and Herskowitz, Mol. Cell 1:685-696, 1998). Ndt80p is autoregulated and activates its targets through a mid-sporulation element consensus site (MSE: gNCRCAAAA/T) in the target (Chu and Herskowitz, Mol. Cell 1:685-696, 1998). Expression of the NDT80 gene is repressed during vegetative growth (Xu et al., Mol. Cell Biol. 15:6572-6581, 1995; Pak and Segall, Mol. Cell Biol. 22:6417-6429, 2002).
First, homogenized isolated colonies from an overnight SD plate were transferred into a 0.85% NaCl solution to achieve a suspension containing 5×10^6 cells/ml. A sterile swab was dipped into the inoculum suspension and the entire agar surface of an SD plate was streaked evenly with the swab. The plates were allowed to dry until all excess moisture was completely absorbed, and the Etest strips (AB BIODISK, Solna, Sweden) were applied onto each plate. The plates were incubated at 30° C. and were photographed after 3 days of growth. These Etest strips tested the susceptibility to ketoconazole (0.002-32 μg/ml) (KE) and fluconazole (0.016-256 μg/ml) (FL). Susceptibility is indicated by a clear ring around the antifungal strips where growth has been inhibited. Degree of susceptibility is indicated by the size of the ring. The strains tested were the NDT80/NDT80 wild type S. cerevisiae strain transformed with the control vectors 2μ-URA3and CEN-LEU2 (Christianson et al., Gene 110:119-122, 1992; Sikorski and Hieter, Genetics 122:19-27, 1989) (designated as strain SLO16) (“NDT80/NDT80” lane in FIG. 6); a ndt80/ndt80 homozygous mutant transformed with the control 2μ-URA3 vector (designated as strain SLO14) (“ndt80/ndt80 2μ vector” lane in FIG. 6); a ndt80/ndt80 homozygous mutant transformed with the 2μ-URA3-NDT80 plasmid, LOB46 (designated as strain SLO13) (“ndt80/ndt80 2μ NDT80” lane in FIG. 6); and a ndt80/ndt80 homozygous mutant transformed with the 2μ-URA3-CaNDT80 plasmid, LOB44 (designated as strain SLO15) (“ndt80/ndt80 2μ CaNDT80” lane in FIG. 6).
In a separate experiment, a strain harboring the LOB44 plasmid without the NDT80 gene was tested in the Etest.

C. albicans [3] = test: Etest antifungal strip susceptibility of C. albicans strains
Description: The three C. albicans strains SC5314 (wild type), YLO133 (homozygous mutant Candt80/Candt80) and YLO137 (rescued strain of YLO133 with one copy of CaNDT80), were also tested for susceptibility to five different drugs using the Etest. Five different antifungal strips (AB BIODISK, Solna, Sweden) were used: amphotericin B at 0.002-32 μg/ml (AP), 5-fluorocytosine at 0.002-32 μg/ml (FC), fluconazole at 0.016-256 μg/ml (FL), itraconazole at 0.002-32 μg/ml (IT) and ketoconazole at 0.002-32 μg/ml (KE). Each strain was grown overnight on an SD plate and homogenized colonies from the plate were transferred into 0.85% NaCl to achieve a suspension of about 5×10^6 cells/ml. A sterile swab was dipped into the inoculum suspension and the entire agar surface of a SD plate was evenly streaked. Each plate was dried until excess moisture was completely absorbed and each of the five different Etest strips were applied onto each plate. The plates were incubated at 30° C. and were photographed after 2 days of growth. Susceptibility to a drug is indicated by a clear inhibition zone around the antifungal strip where growth has been inhibited. Degree of susceptibility is indicated by the size of the ring.

[4] = S. cerevisiae overexpressing CaNDT80 (LOB44 plasmid)
[5] = S. cerevisiae transformed with control vector
[6] = homozygous mutant Candt80/Candt80 (YLO133) compared with wild type SC5314, 2 days

| SMILES | susceptibility (growth on drug plates) (C. albicans [2]) | MIC (S. cerevisiae; [4]) | MIC (S. cerevisiae; [5]) | drug susceptibility (inhibition zone) (C. albicans [3]; [6]) | also measured |
| --- | --- | --- | --- | --- | --- |
| Clc1ccc(COC(Cn2ccnc2)c2ccc(Cl)cc2Cl)c(Cl)c1 (stereo not drawn) [miconazole] | – | – | – | – | patterns of TEF3, CDR1 and CaNDT80 mRNA with versus without treatment (C. albicans [1]): comparable |
| C[C@@H](c1ncncc1F)[C@](O)(Cn1cncn1)c1ccc(F)cc1F [voriconazole] | more susceptible | – | – | – | – |
| CC(=O)N1CCN(c2ccc(OCC3COC(Cn4ccnc4)(c4ccc(Cl)cc4Cl)O3)cc2)CC1 (stereo not drawn) [ketoconazole] | – | ≥ 32 µg/mL | 6 µg/mL (≈ 11.3 µM) | increased susceptibility | drug susceptibility (inhibition zone) (S. cerevisiae; ndt80/ndt80 2μ CaNDT80 compared with NDT80/NDT80 S. cerevisiae, 3 days): decreased |
| OC(Cn1cncn1)(Cn1cncn1)c1ccc(F)cc1F [fluconazole] | more susceptible | 64 µg/mL (≈ 209 µM) | 24 µg/mL (≈ 78.4 µM) | increased susceptibility | drug susceptibility (inhibition zone) (C. albicans [3]; rescued strain YLO137 (one copy of CaNDT80) compared with wild type SC5314, 2 days): more susceptible |
| Nc1nc(=O)[nH]cc1F [5-fluorocytosine] | – | – | – | increased susceptibility | – |
